Patent publication US6887895B2, “Pseudolaric acid-B derivatives, their preparation and pharmaceutical compositions” (Shanghai Institute of Materia Medica Chinese Academy of …, priority 2001, dated 2005)
Converted amounts (≈) assume the structure as drawn. Read-outs that look alike come from different tables or passages of the source.

Tests used:
[1] = system: human microvascular endothelial cells (HMEC); test: HMEC proliferation assay (SRB), anti-angiogenic activity; format: cell-based
Protocol: (§1) To evaluate the anti-tumor pharmacological activity of the compounds of the invention, the anti-proliferation activity thereof was assayed using P388 murin leukemia cells and A549 human lung adenocarcinoma cells; the anti-angiogenic activity, a newer target of antitumor, was measured using human microvascular endothelial cells (HMEC). Pseudolarix acid-B and hydroxycamptothecin were used as reference compounds in the evaluation.
(§2) P388, A549 and HMEC Proliferation Assay
(§3) Materials: DMEM was purchased from Gibco (Life Technologies, Grand Island, N.Y., USA). Sulforodamine B (SRB) and MTT were obtained from Sigma; TCA […] and Tris base buffer were analytical pure products made in China.
(§4) SRB assay: Tumor (A549 and HMEC) cells in logarithmic growth were plated in DMEM media in the wells of a 96-well plate (5×10^3 cells/90 μL/well) and serial dilutions of the compounds (10 μL) prepared in medium were added. Experiments at each concentration of compounds were performed in triplicate with controls of normal saline and cell-free withered wells. The plates were incubated at 37° C., 5% CO2, for 72 hr. The media were decanted and cells were fixed with cold (4° C.) 10% trichloroacetic acid, followed by incubation at 4° C. for 1 hr. Then plates were washed with deionised water five times and allowed to air dry and stained by addition of 100 μL/well SRB solution [0.4% SRB (Sigma) in 1% acetic acid (W/V)] for 15 min. Following staining, plates were quickly washed five times with 1% acetic acid to remove unbound dye, and allowed to air dry. Bound dye was solubilized with Tris buffer (pH 10.5) prior to reading plates. The OD was measured with a multiwell spectrophotometer (VERSAmax, Molecular Devices, USA) at a wavelength of 520 nm.
(§5) The rate of inhibition on the growth of cancer cells was calculated by the formula: Rate of growth inhibition=[1−(A520 treated/A520 control)]×100%
The result was also expressed as IC50 (the drug concentration reducing by 50% the absorbance in treated cells, with respect to untreated cells) that was calculated by Logit method. […]

Trichophyton rubrum = test: Antifungal screening, agar diluting method; format: cell-based
From the text: Screening on Antifungal Activities
The action on Trichophyton rubrum was observed using agar diluting method. The drug concentration in the Petridish on which no growth of fungus observed is the minimun inhibition concentration.

[2] = system: P388 murin leukemia cells; test: P388 proliferation assay (MTT); format: cell-based, murine
Protocol: as §1, §2, §3
MTT assay: P388 cells were seeded at a density of 1.5×10^5/ml into wells of 96-well plates and incubated with complete medium. After 24 hr, serial dilutions of the compounds (10 μL) prepared in medium were added. Experiments at each concentration of compounds were performed in triplicate with controls of cell-free withered wells and cell-free withered wells at corresponding concentration of compounds, if it is colored. The plates were incubated at 37° C., 5% CO2, for 48 hr. Then, 20 μL aliquots of MTT (Sigma) solution (5 mg/mL) in saline were added directly to all the appropriate wells. The culture was continuously incubated for 4 hr. Then 50 μL “triplex solution” (10% SDS-5% isobutanol- 0.01M HCl) was added into each well. After the plates were incubated at 37° C. overnight, the values of absorbance at 520 nm were measured by using a plate reader (VERSA Max, Molecular Devices).
as §5
(§6) The result was also expressed as IC50 (the drug concentration reducing by 50% the absorbance in treated cells, with respect to untreated cells) that was calculated by Logit method. The mean IC50 was determined according to the data from three independent tests.

Candida albicans = test: Antifungal screening, liquid diluting method; format: cell-based
From the text: Screening on Antifungal Activities The action on Candida albicans was observed using liquid diluting method. The drug concentration in the tube in which no growth of fungus observed is the minimun inhibition concentration.

[3] = system: A549 human lung adenocarcinoma cells; test: A549 proliferation assay (SRB); format: cell-based
Protocol: as §1, §2, §3, §4, §5, §6

Sarcoma 180 cell = test: Sarcoma 180 tumor growth inhibition in mice; format: in vivo, Kunming strain female mice; settings: for Tumor weight: S-180 mice; for Inhibition %: tumor growth vs control
Protocol: (§7) 30 Kunming strain female mice weighing 18-22 g were used. Suspensions of well grown Sarcoma 180 cell were implanted subcutaneously into the right axilla region of the mice, about 4.5-5×10^6 cells/mouse. The animals were grouped randomly 24 hours after the implantation. Daily treatment with drugs or normal saline commenced 1 day after implantation of S-180 cells. Mice were administered by i.p. injection with vehicle or compounds once a day for consecutive 6 days. All the mice were euthanized after the last administration. The mice and the tumors were weighed. The average weights of tumors of each group were calculated and rate of inhibition of tumor growth in vivo was calculated using the following formula: [formula]

[4] = Body weight of Sarcoma 180-bearing mice under treatment; format: in vivo, Kunming strain female mice
Protocol: as §7

[5] = Mus musculus, P388 cells, MTT, 48 hr, read-out: IC50
[6] = Homo sapiens, A549 cells, SRB, 72 hr, read-out: IC50
[7] = 5 mg/kg i.p. once a day for 6 days
[8] = 10 mg/kg i.p. once a day for 6 days
[9] = 15 mg/kg i.p. once a day for 6 days

CC[C@@]1(O)C(=O)OCc2c1cc1n(c2=O)Cc2cc3cc(O)ccc3nc2-1 [hydroxycamptothecin] showed an IC50 ([1]; Homo sapiens, HMEC, 72 h) of 470 nM.
In the case of COC(=O)C1=CC[C@@]23CC[C@@H]([C@@](C)(/C=C/C=C(\C)C(=O)O)OC2=O)[C@@]3(OC(C)=O)CC1 [Pseudolarix acid-B, pseudolaric acid B, reference compound], the “MIC (μg/ml) (Trichophyton rubrum)” value (Trichophyton rubrum) is reported as 50.0 µg/mL (≈ 116 µM), the IC50 ([2]; P388 cells, MTT, 48 hr, read-out: IC50) is reported as 0.83 nM and the IC50 ([1]; HMEC cells, SRB, 72 hr, read-out: IC50) is reported as 80 nM. The “MIC (μg/ml) (Candida albicans)” value (Candida albicans) was 12.5 µg/mL (≈ 28.9 µM) and the IC50 ([3]; A549 cells, SRB, 72 hr, read-out: IC50) was 28 nM.
In the case of COC(=O)C1=CC[C@]23CC[C@H](C(C)(/C=C/C=C(\C)C(=O)O)OC2=O)[C@]3(OC(=O)Cc2ccc(Cl)cc2)CC1 (stereo partly shown) [PEX-24Y], the IC50 [2, 5] is reported as 0.26 nM and the IC50 [3, 6] is reported as 69 nM.
In the case of CC(=O)O[C@@]12CCC(C(=O)OCC3CCCCC3)=CC[C@@]13CC[C@@H]2C(C)(/C=C/C=C(\C)C(=O)O)OC3=O (stereo partly shown) [PEX-31Y], the IC50 ([2]; Mus musculus, P388, 48 h) is reported as less than 0.1 nM and the IC50 ([3]; Homo sapiens, A549, 72 h) is reported as less than 0.1 nM.
In the case of COC(=O)C1=CC[C@]23CC[C@H](C(C)(/C=C/C=C(\C)C(=O)Nc4cccc(O)c4)OC2=O)[C@]3(OC(C)=O)CC1 (stereo partly shown) [PEX-15Y], the IC50 [3, 6] is reported as 150 nM.
CC(=O)O[C@@]12CCC(C(=O)OCc3ccco3)=CC[C@@]13CC[C@@H]2C(C)(/C=C/C=C(\C)C(=O)O)OC3=O (stereo partly shown) [PEX-25Y] showed an MIC (Trichophyton rubrum; Trichophyton rubrum, read-out: MIC (μg/ml) (Trichophyton rubrum)) of 12.5 µg/mL (≈ 25.1 µM), an IC50 [2, 5] of less than 0.1 nM and an IC50 ([1]; Homo sapiens, HMEC cells, SRB, 72 hr, read-out: IC50) of 1 nM. The “Tumor weight” value (Sarcoma 180 cell; [7]) was 0.30 ± 0.23 g, the Inhibition % (Sarcoma 180 cell; [7]) was 64.3% and the “Tumor weight” value (Sarcoma 180 cell; [8]) was 0.26 ± 0.11 g. For the same compound, the Inhibition % (Sarcoma 180 cell; [8]) was 69.0%, the “Tumor weight” value (Sarcoma 180 cell; [9]) was 0.28 ± 0.13 g and the Inhibition % (Sarcoma 180 cell; [9]) was 66.7%. The “Body weight (g) At last” value ([4]; 5 mg/kg i.p. once a day for 6 days, beginning 20.4 g) was 21.1 g, the “Body weight (g) At last” value ([4]; 10 mg/kg i.p. once a day for 6 days, beginning 20.4 g) was 19.7 g and the “Body weight (g) At last” value ([4]; 15 mg/kg i.p. once a day for 6 days, beginning 20.5 g) was 21.2 g. For the same compound, the MIC (Candida albicans; Candida albicans, read-out: MIC (μg/ml) (Candida albicans)) was 6.25 µg/mL (≈ 12.5 µM) and the IC50 [3, 6] was 55 nM.
